# According to patent publication US6911220B1, “Allogeneic and xenogeneic transplantation” (The General Hospital Corporation, priority 1992, dated 2005):
# Tested on: pig kidney transplants in Cynomolgus monkeys
# Assay: Pig to monkey kidney xenotransplantation
smiles,measurement,setting,value
"N=C(N)NCCCCCCC(=O)NC(O)C(=O)NCCCCNCCCN (stereo not shown) [DSG, 15-deoxyspergualin]",suppression of natural antibody function,"6 mg/kg/day, i.v., pig to cynomolgus kidney transplants",useful in suppressing natural antibody function
same,usefulness of combination treatment,"cyclosporine 15 mg/kg/day 28 days + 15-deoxyspergualin 6 mg/kg/day two weeks + pig SCF and IL-3 10 μg/kg/day i.v. two weeks, pig grafts and stem cells",useful
same,day until which the pig kidney functioned,"splenectomy + pig liver perfusion, cyclosporine 15 mg/kg/day iv and DSG 6 mg/kg/day iv post-transplant, removed on day 8",7 days
same,IgM natural antibodies in serum after liver perfusion,with cyclosporine 15 mg/kg/day iv and DSG 6 mg/kg/day iv,did not appear in the serum thereafter
